# Experiments:
# [1] = molecular target: Gamma-secretase; test: Inhibition of human gamma-secretase activity; assay type: protein-complex assay
# [2] = system: Mus musculus; test: Compound was tested for reduction in Abeta-protein levels in brain after 3 hr in Tg2576 beta-APP-swedish transgenic mice at a single dose of 200 umol/kg; assay type: functional
# [3] = system: Mus musculus; test: Compound was tested for reduction in Abeta-protein levels in plasma of Tg2576 beta-APP-swedish transgenic mice at a single dose of 200 umol/kg; assay type: functional
# [4] = system: Mus musculus; test: Compound was tested for reduction in Abeta-protein levels in the CNS of Tg2576 beta-APP-swedish transgenic mice after oral administration; assay type: functional, Central nervous system
# [5] = system: Mus musculus; test: Compound was tested for reduction in brain Abeta-protein level of Tg2576 mice 3h after oral administration at 200 umol/kg; assay type: functional
# [6] = system: Mus musculus; test: Compound was tested for reduction in plasma level of Tg2576 mice 3h after oral administration at 200 umol/kg; assay type: functional
# [7] = system: Mus musculus; test: Compound was tested for reduction in Abeta-protein levels in brain of Tg2576 mice 3h after oral administration at 200 umol/kg; assay type: functional
Compound,IC50 [1] [nM],further results
CC(C)N1C(=O)c2ccccc2C(NC(=O)[C@H](C)NC(=O)Cc2cccc(F)c2)C(=O)N1C (stereo not given in full),57,
CC(C)N1C(=O)c2ccccc2C(NC(=O)[C@H](C)NC(=O)Cc2cccc3ccccc23)C(=O)N1C (stereo not given in full),> 2500,
CC(C)N1C(=O)c2ccccc2C(NC(=O)[C@H](C)NC(=O)Cc2cccnc2)C(=O)N1C (stereo not given in full),> 2500,
CC(C)[C@H](NC(=O)Cc1cc(F)cc(F)c1)C(=O)NC1C(=O)N(C)N(C(C)C)C(=O)c2ccccc21 (stereo not given in full),190,
CCCCN(C)C(=O)[C@H](CC1CCCCC1)NC(=O)[C@H](CC(C)C)NC(=O)[C@@H](O)c1ccccc1,1,Activity [2]: 65 nM; Activity [3]: 1833 nM; Reduction [4]: 15%
CC(C)C[C@H](NC(=O)Cc1cc(F)cc(F)c1)C(=O)NC1C(=O)N(C)N(C(C)C)C(=O)c2ccccc21 (stereo not given in full),37,
CC(C)N1C(=O)c2ccccc2C(NC(=O)[C@H](C)NC(=O)Cc2cc(F)cc(F)c2)C(=O)N1C (stereo not given in full),47,
CC(C)N1C(=O)c2ccccc2C(NC(=O)[C@H](C)NC(=O)Cc2ccccc2)C(=O)N1C (stereo not given in full),140,
CC(C)C[C@H](NC(=O)[C@@H](O)c1ccccc1)C(=O)N[C@H]1c2ccccc2C[C@H]1O,71,
CC(C)N1C(=O)c2ccccc2C(NC(=O)[C@H](C)NC(=O)Cc2ccsc2)C(=O)N1C (stereo not given in full),14,
C[C@H](NC(=O)Cc1cc(F)cc(F)c1)C(=O)NC1N=C(c2ccccc2)c2ccccc2N(C)C1=O (stereo not given in full),210,
CC(C)C[C@H](NC(=O)Cc1cc(F)cc(F)c1)C(=O)Nc1cnc(-c2ccccc2)n(C)c1=O,720,
CC(C)C[C@H](NC(=O)Cc1ccsc1)C(=O)NC1C(=O)N(C)N(C(C)C)C(=O)c2ccccc21 (stereo not given in full),4,
CC(C)N1C(=O)c2ccccc2C(NC(=O)[C@H](C)NC(=O)Cc2ccoc2)C(=O)N1C (stereo not given in full),38,
CC(C)N1C(=O)c2ccccc2C(NC(=O)[C@H](C)NC(=O)CC2CCCCC2)C(=O)N1C (stereo not given in full),150,
CC(C)C[C@H](NC(=O)Cc1cc(F)cc(F)c1)C(=O)NC1C(=O)N(C)C(c2ccccc2)=NC1(C)C (stereo not given in full),1500,
C[C@H](NC(=O)Cc1cc(F)cc(F)c1)C(=O)NC1C(=O)N(C)N(C)C(=O)c2ccccc21 (stereo not given in full),5,Activity [5]: 77 nM; Activity [6]: 2987 nM; Reduction [7]: 43%
CCCCN(C)C(=O)[C@H](CC1CCCCC1)NC(=O)[C@H](CC(C)C)NC(=O)Cc1cc(F)cc(F)c1,6,
CC(C)N1C(=O)c2ccccc2C(NC(=O)[C@H](C)NC(=O)[C@@H](O)c2cc(F)cc(F)c2)C(=O)N1C (stereo not given in full),5,
C[C@H](NC(=O)Cc1cc(F)cc(F)c1)C(=O)NC1C(=O)N(C)c2ccccc2-c2ccccc21 (stereo not given in full),76,
COc1cc(CC(=O)N[C@@H](C)C(=O)NC2C(=O)N(C)N(C(C)C)C(=O)c3ccccc32)cc(OC)c1 (stereo not given in full),> 2500,
CC(C)N1C(=O)c2ccccc2C(NC(=O)[C@H](C)NC(=O)Cc2cc(C(F)(F)F)cc(C(F)(F)F)c2)C(=O)N1C (stereo not given in full),> 2500,
CC(C)N1C(=O)c2ccccc2C(NC(=O)[C@H](C)NC(=O)Cc2ccco2)C(=O)N1C (stereo not given in full),86,
CC(C)N1C(=O)c2ccccc2C(NC(=O)[C@H](C)NC(=O)Cc2ccncc2)C(=O)N1C (stereo not given in full),> 2500,

# Source: ChEMBL document CHEMBL1137933, “Pseudodeflectusin, a novel isochroman derivative from Aspergillus pseudodeflectus a parasite of the sea weed, Sargassum fusiform, as a selective human cancer cytotoxin” (Bioorg Med Chem Lett, 2004)
